Experiment [1] deals with amphetamine/chlordiazepoxide-induced hyperactivity in mice. The following applies: previous validation studies (literature); cited from earlier work.
The test system is the same in experiment [2]. The experiment in a line: amphetamine/chlordiazepoxide-induced hyperactivity, rodent model of mania (locomotor activity). The following applies: 150 mg/kg i.p., data not shown.

Turning to `CCCC(CCC)C(=O)[O-].[Na+]` [sodium valproate], the “behaviour induced by amphetamine plus chlordiazepoxide” value in experiment [1] is “can be ameliorated”. Moreover, in experiment [2], the amphetamine/chlordiazepoxide-induced hyperactivity entry is listed as “can be prevented”.

Values taken from patent publication US20040029773A1, “Use of 1-ebio in the treatment of bipolar disorders” (priority 2000, published 2004).
